Source: US5837728A, “9-cis retinoic acid esters and amides and uses thereof” (priority 1995, dated 1998)

Key:
retinoid receptors = conditions: all six subfamilies of retinoid receptors; cited from earlier work
sebaceous gland = experiment: Oral hamster sebaceous gland reduction assay; assay type: in vivo, male Syrian golden hamsters; design: key to the marks not given beside the values; conditions: 32 mg/kg
Procedure: An oral assay for hamster sebaceous gland reduction is conducted.
Hamsters are dosed orally with the test compound and vehicle alone. The reduction in sebaceous gland size is estimated microscopically in relation to the control. The assay is unique and proprietary to Ortho Pharmaceutical Corp. and is based upon the work of Plewig et al. (1977) and Gomex et al. (1980). Plewig, et al., Hamster Ear Model for Sebaceous Glands, J. Invest. Derm. 68: 171-176 (1977). Gomez, et al., Effect of 13-cis-Retinoic Acid on the Hamster Flank Organ, J. Invest. Derm. 74: 392-397 (1980).
For oral (p.o.) studies, male Syrian golden hamsters are […] at 5 ml/kg, once daily, five consecutive days/week for two or three weeks. Modified but similar dosing schedules could be used. Control hamsters are dosed with vehicle alone at 5 ml/kg. Following final treatment (up to 72 hours), the hamsters are sacrificed in a CO2 atmosphere. Samples of each test site are placed into 10% buffered formalin and histologically prepared. Serial sections of each sample are stained (H&E) and examined microscopically.
The reduction in sebaceous gland size is estimated microscopically in relation to the control treated sites. To quantify sebaceous gland size, cross-sectional areas are measured with an image analyzer system.

[1] = tested on: skin (inner forearm, cheek); experiment: Topical assay for comparative dermal irritation in human subjects; assay type: in vivo, human (patients)
Procedure: 2-(9-cis-retinoyloxy)-4-methoxyacetophenone is evaluated in a study of its potential to produce dermal irritation. Comparisons are made of tretinoin, isotretinoin, 2-(9-cis-retinoyloxy)-4-methoxyacetophenone, and the vehicle solution.
In the first test, four solutions are used. The control consists of vehicle solution, namely a solution of 60% by volume ethanol and 40% by volume polyethylene glycol. The other three solutions are 0.025% solutions of tretinoin, isotretinoin, or 2-(9-cis-retinoyloxy)-4-methoxyacetophenone in 60% by volume ethanol and 40% by volume polyethylene glycol. Four patients paint two saturated cotton swabs of each of the four solutions on four different areas of the inner forearm, twice daily for ten days.
In the second test, four other solutions are used. The control consists of vehicle solution, namely a solution of 90% by volume ethanol and 10% by volume polyethylene glycol. The other three solutions are 0.075% solutions of tretinoin, isotretinoin, or 2-(9-cis-retinoyloxy)-4-methoxyacetophenonein 90% by volume ethanol and 10% by volume polyethylene glycol. Four patients paint two saturated cotton swabs of each of the four solutions on four different areas of the inner forearm, twice daily for ten days. Only one subject experiences an irritant reaction. […] By day nine, both areas are still reacting, the tretinoin area more intensely than the isotretinoin area. There is no reaction in either the 2-(9-cis-retinoyloxy)-4-methoxyacetophenone or the control areas.
In the third test, three solutions are used. The three solutions are 0.075% solutions of tretinoin, isotretinoin, or 2-(9-cis-retinoyloxy)-4-methoxyacetophenone in 90% by volume ethanol and 10% by volume polyethylene glycol. Four patients paint two saturated cotton swabs of the 2-(9-cis-retinoyloxy)-4-methoxyacetophenone solution twice daily on one cheek of their faces. To the other cheek they apply two saturated cotton swabs of either tretinoin or isotretinoin.
The tests are carried out in double-blind fashion, that is, neither the subjects nor the investigator know the contents of the solutions during the study.
Clinical assessments are made daily of the subjects cheeks. All subjects develop irritant reactions by the third or fourth day of the study.

[2] = tested on: donor sites (partial-thickness wounds); conditions: average, silver sulfadiazine cream containing epidermal growth factor; cited from earlier work
[3] = tested on: ulceration of both lower legs; conditions: one patient, livedoid vasculitis; cited from earlier work

Question: For CC1=C(/C=C/C(C)=C\C=C\C(C)=C\C(=O)O)C(C)(C)CCC1 [9-cis-retinoic acid], which “Equilibrium constants in competitive binding” value (retinoid receptors) is on record?
Answer: The value was “lowest equilibrium constants of all retinoids for all six subfamilies of retinoid receptors”.

Question: Which Sebaceous gland reduction (sebaceous gland) does the source give for CC1=C(/C=C/C(C)=C/C=C/C(C)=C\C(=O)O)C(C)(C)CCC1 [13-cis-retinoic acid] here?
Answer: The Sebaceous gland reduction was “++”.

Question: What about the “Irritant reactions, inner forearm” value ([1]; first test, 0.025% solution, twice daily for ten days) of the same compound?
Answer: The value was “No irritant reactions occur”.

Question: What about the “Irritant reaction, inner forearm” value ([1]; second test, 0.075% solution, twice daily for ten days, one subject of four reacted) of the same compound?
Answer: The value was “On day seven, the isotretinoin area begins reacting with redness and peeling”.

Question: What about the “Irritation of the cheeks” value ([1]; third test, 0.075% solution, twice daily, six days) of the same compound?
Answer: Its value is “reactions which are so intense with redness and peeling that all subjects discontinue application on or before the sixth day”.

Question: For epidermal growth factor, which “Acceleration of donor site healing time” value [2] is on record?
Answer: Its value is 1.5 days.

Question: Which “Effect on recalcitrant ulceration” value [3] does the source give for O=C(c1ccc(F)cc1)C1CCN(CCn2c(=O)[nH]c3ccccc3c2=O)CC1 [Ketanserin] here?
Answer: Its value is “healed the lesions in a patient with recalcitrant ulceration of both lower legs”.
